Source: paper PMC10649008 (Antimicrobial Agents and Chemotherapy, 2023)
“And” between values parts separate entries of the source, which are not always exact repeats. Equal entries are not always repeated. Where two headings read alike, the source gives them in different places.

Columns and labels:
[1] = From the text: All study procedures were reviewed and approved by the respective Institutional Review Board for each study site. Prior to any study procedures, written informed consent from a parent or legal guardian and assent (if appropriate for older patients) were obtained. The patient population consisted of subjects aged >12 months to <17 years of age who required systemic antibiotic therapy for the treatment or prevention of known or suspected bacterial infection. Subjects were enrolled into four cohorts stratified by age: adolescents (12–17 years of age), older children (6–11 years of age), younger children (2–5 years of age), and infants (1–2 years of age). […] The study consisted of a screening period followed by a treatment period and a safety follow-up period through Day 8 ± 1 day.
(§1) Safety was monitored during both the screening and treatment periods by physical exams, vital signs, urinalysis, and clinical laboratory measures (complete blood count with differential, serum chemistry, creatinine, and liver enzymes); AEs and concomitant medications were recorded from screening through follow-up on Day 8 (± 1 day). Medical and medication history and demographics were collected at screening. Vital signs (heart rate, blood pressure, respiratory rate, and body temperature) were collected at screening, Days 1 and 2 of the study.

[2] = post-dose, single 10 mg/kg IV
Protocol: as §1

[3] = Healthy adults, N = 42, single 10 mg/kg IV dose, mean ± SD, cited from earlier work
[4] = five courses in three adolescent cystic fibrosis patients; 8.7–10 mg/kg daily for up to 3 weeks; cited from earlier work
[5] = all cohorts, three of 22 subjects, single 10 mg/kg IV
[6] = all cohorts, two of 22 subjects, single 10 mg/kg IV

With `CCCCCCCCCCNCCN[C@@]1(C)C[C@H](O[C@H]2[C@H](Oc3c4cc5cc3Oc3ccc(cc3Cl)[C@@H](O)[C@@H](NC(=O)[C@@H](CC(C)C)NC)C(=O)N[C@@H](CC(N)=O)C(=O)N[C@H]5C(=O)N[C@H]3C(=O)N[C@H](C(=O)N[C@H](C(=O)O)c5cc(O)c(CNCP(=O)(O)O)c(O)c5-c5cc3ccc5O)[C@H](O)c3ccc(c(Cl)c3)O4)O[C@H](CO)[C@@H](O)[C@@H]2O)O[C@@H](C)[C@H]1O` [telavancin] the “Number of adverse events moderate in severity” value ([1]; Cohort 2 (6–11 years), of 11 AEs, single 10 mg/kg IV) was “two”, the “Adverse events considered probably related to telavancin administration” value ([1]; Cohort 2 (6–11 years), six of the 11 events) was 55% and the Adverse events ([1]; Cohort 3 (2–5 years), single subject, single 10 mg/kg IV) was “No AEs were reported”. The “Subjects with adverse events” value ([1]; all cohorts, 10 of the 22 subjects, single 10 mg/kg IV, through Day 8 ± 1) was 45%, the “Total number of adverse events (AEs)” value ([1]; all cohorts, 22 subjects 2–17 years, single 10 mg/kg IV, through Day 8 ± 1) was 27 and the Serious adverse events ([1]; all cohorts, 22 subjects, single 10 mg/kg IV) was “no serious AEs”. The Subjects with nausea ([1]; all cohorts, four of 22 subjects, single 10 mg/kg IV) was 18%, the “Subjects with foamy urine” value [1, 5] was 14% and the “Subjects with taste disturbance/metallic taste” value [1, 5] was 14%. The Subjects with dizziness [1, 6] was 9%, the Subjects with headache [1, 6] was 9% and the “Tolerability of a single dose” value ([1]; all pediatric age cohorts, single 10 mg/kg IV) was “well-tolerated”. The “QT interval (12-lead ECG)” value ([1]; one subject in Cohort 2 (6–11 years), ECG 1.5–2.5 h after start of infusion, moderate, resolved prior to Day 8) was “prolonged QT interval”, the Infusion reactions ([1]; single 10 mg/kg infusion administered over an hour, all cohorts) was “no infusion reactions” and the “Clinically significant abnormalities following telavancin administration” value ([1]; worsened ALT and LDH in one Cohort 1 subject, prolonged QT in one Cohort 2 subject, moderate, resolved prior to Day 8) was “three”. For the same compound, the Creatinine ([2]; Cohort 1 (12 to 17 years), 9 subjects, pre-dose 0.6 ± 0.2 (N = 14)) was 1.0 ± 1.1 mg/dL, the Total bilirubin ([2]; Cohort 1 (12 to 17 years), 9 subjects, pre-dose 0.6 ± 0.3 (N = 14)) was 0.3 ± 0.2 mg/dL and the Leukocytes ([2]; Cohort 1 (12 to 17 years), 9 subjects, pre-dose 10.3 ± 3.1 (N = 14)) was 7.3 ± 2.0 x10^9/L. The Hemoglobin ([2]; Cohort 1 (12 to 17 years), 9 subjects, pre-dose 12.2 ± 1.7 (N = 14)) was 12.1 ± 1.4 g/dL, the Alanine aminotransferase ([2]; Cohort 1 (12 to 17 years), 9 subjects, pre-dose 25.9 ± 15.1 (N = 14)) was 37.4 ± 24.2 IU/L and the Aspartate aminotransferase ([2]; Cohort 1 (12 to 17 years), 9 subjects, pre-dose 50.9 ± 56.2 (N = 14)) was 72.8 ± 72.0 IU/L. For the same compound, the Platelets ([2]; Cohort 1 (12 to 17 years), 9 subjects, pre-dose 226 ± 69.1 (N = 14)) was 236 ± 85.9 x10^9/L, the Lactate dehydrogenase ([2]; Cohort 1 (12 to 17 years), 9 subjects, pre-dose 361 ± 247 (N = 14)) was 439 ± 270 IU/L and the Creatinine ([2]; Cohort 2 (6 to 11 years), 6 subjects, pre-dose 0.4± 0.1 (N = 7)) was 0.4 ± 0.1 mg/dL. The Total bilirubin ([2]; Cohort 2 (6 to 11 years), 6 subjects, pre-dose 0.6 ± 0.5 (N = 7)) was 0.5 ± 0.3 mg/dL, the Leukocytes ([2]; Cohort 2 (6 to 11 years), 6 subjects, pre-dose 8.3 ± 3.0 (N = 7)) was 6.3 ± 1.3 x10^9/L and the Hemoglobin ([2]; Cohort 2 (6 to 11 years), 6 subjects, pre-dose 11.7 ± 1.4 (N = 7)) was 11.9 ± 1.4 g/dL. The Alanine aminotransferase ([2]; Cohort 2 (6 to 11 years), 6 subjects, pre-dose 30.9 ± 12.2 (N = 7)) was 36.8 ± 19.4 IU/L, the Aspartate aminotransferase ([2]; Cohort 2 (6 to 11 years), 6 subjects, pre-dose 41.6 ± 26.0 (N = 7)) was 46.7 ± 40.7 IU/L and the Platelets ([2]; Cohort 2 (6 to 11 years), 6 subjects, pre-dose 267 ± 73.6 (N = 7)) was 289 ± 105.5 x10^9/L. For the same compound, the Creatinine ([2]; Cohort 3 (2 to 5 years), N = 1, pre-dose 0.2 ± 0.0) was 0.2 ± 0.0 mg/dL, the Total bilirubin ([2]; Cohort 3 (2 to 5 years), N = 1, pre-dose 0.4 ± 0.0) was 0.4 ± 0.0 mg/dL and the Leukocytes ([2]; Cohort 3 (2 to 5 years), N = 1, pre-dose 4.6 ± 0.0) was 7.5 ± 0.0 x10^9/L. For the same compound, the Hemoglobin ([2]; Cohort 3 (2 to 5 years), N = 1, pre-dose 10.0 ± 0.0) was 10.3 ± 0.0 g/dL, the Aspartate aminotransferase ([2]; Cohort 3 (2 to 5 years), N = 1, pre-dose 41.0 ± 0.0) was 37.0 ± 0.0 IU/L and the Alanine aminotransferase ([2]; Cohort 3 (2 to 5 years), N = 1, pre-dose 72.0 ± 0.0) was 62.0 ± 0.0 IU/L. For the same compound, the Platelets ([2]; Cohort 3 (2 to 5 years), N = 1, pre-dose 148 ± 0.0) was 195 ± 0.0 x10^9/L, the Lactate dehydrogenase ([2]; Cohort 3 (2 to 5 years), N = 1, pre-dose 477 ± 0.0) was 480 ± 0.0 IU/L and the “AUC0-inf (area under the curve extrapolated to infinity)” value ([3]; 10 mg/kg) was 747 µg·h/mL and 747 ± 129 µg·h/mL. The “T 1/2 (terminal elimination half-life)” value ([3]; 10 mg/kg) was 8.0 h and 8.0 ± 1.5 h, the “C max (maximum plasma concentration)” value [3] was 93.6 ± 14.2 µg/mL and the “CL (clearance)” value [3] was 13.9 ± 2.9 mL/h/kg. For the same compound, the “Serum creatinine across courses of treatment” value [4] was “remained stable”.
